Series [1] has as its target T1, histamine H2 receptor (Rattus norvegicus, UniProt P25102).
T1 construct: endogenous in cells
Briefly: Competition binding assay (displacement of ^3H-tiotidine). The source says:
(§1) All test animals were used in accordance with the National Institutes of Health Guidelines for the Care and Use of Laboratory Animals and Permission for Use of Laboratory Animals 34401-1/2010/8 and U34401-12/2013/3 issued by the Administration of the Republic of Slovenia for Food Safety, Veterinary and Plant Protection to prepare primary astrocytes cultures from newborn not-treated rat. 3 day old rats were sacrificed by decapitation, followed by removing the brain cortices. Primary cultures of astrocytes were prepared and cultured as previously described. Cells were grown in high-glucose Dulbecco's modified Eagle's medium (DMEM), containing 10% fetal bovine serum (FBS), 1 mM pyruvate, 2 mM glutamine, and 25 μg/ml gentamycin in 95% air-5% CO2. Confluent cultures were shaken at 225 rpm overnight and the medium was changed the next morning; this was repeated a total of three times. After the third overnight shaking, the cells were trypsinized and cultured for 24 h in 10 μM cytosine arabinoside. After reaching confluence again the cells were subcultured into 12-well clusters and grown until becoming confluent again. The confluent cells were detached, washed twice in PBS, and cell sediment was stored at –70°C until used for the binding assay.
In the competition binding experiments, astrocyte cells were incubated together in the presence of different histaminergic ligands in the concentration range from 0.01 nM– 100 μM under the same incubation conditions as above. The concentration of ^3H-tiotidine used was 5 nM. The binding reaction was rapidly terminated and the bound ligand was separated from the unbound by vacuum filtration. The radioactivity trapped on the GF/C glass fiber filters was counted in a liquid scintillation counter (Microbeta, Perkin Elmer, USA).
(§2) The binding experiments were routinely carried out in triplicate and each experiment was repeated at least twice. The results are expressed as means ± SEM. The binding parameters (KD, Bmax, and IC50) were calculated by a non-linear regression method using software Prism6 version 6.00, GraphPad Software Inc. (San Diego, USA). A comparison of the data among the groups was carried out using Student`s unpaired t-test with Welch correction, where two groups of data were compared. Differences were considered significant at p < 0.05.

In series [2] the target is T1, histamine H2 receptor. Briefly: ^3H-tiotidine saturation binding assay. The following applies: cultured neonatal rat astrocytes; for Kd: read-out: equilibrium dissociation constant (KD).
Source text: as §1
0.1 mg of astrocyte cell protein was incubated for 15 minutes at 25°C in 0.15M Na^+/K^+ -phosphate buffer (pH 7.4) or in 0.15M Na^+/K^+ -phosphate buffer made using D2O instead of miliQ water (pH 7.4) in a total volume of 0.25 mL with the indicated concentrations of ^3H-tiotidine (1–15 nM), with a specific activity of 82.2 Ci/mmol. Specific binding represented the difference between total and non-specific binding (binding in the presence of 1 μM cimetidine).
as §2

The conditions of series [3]: MP2/6–31++G(2d,2p) and Langevin dipole calculated value; cited from earlier work.
The mark [4] stands for this setting: regular phosphate buffer (control).

Usually Kd stands for a measure of binding affinity in units of concentration.

Where two headings read alike, the source gives them in different places.

T1 sequence (P25102 whole entry): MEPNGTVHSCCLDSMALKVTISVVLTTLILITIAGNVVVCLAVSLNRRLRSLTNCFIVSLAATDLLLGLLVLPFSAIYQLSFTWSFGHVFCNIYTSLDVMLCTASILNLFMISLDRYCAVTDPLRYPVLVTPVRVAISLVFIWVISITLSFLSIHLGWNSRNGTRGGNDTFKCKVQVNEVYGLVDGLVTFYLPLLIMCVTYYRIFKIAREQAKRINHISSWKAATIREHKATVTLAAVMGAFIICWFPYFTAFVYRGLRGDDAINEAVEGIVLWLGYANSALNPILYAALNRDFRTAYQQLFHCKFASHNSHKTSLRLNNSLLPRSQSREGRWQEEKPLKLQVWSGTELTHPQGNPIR

With `Cc1ncc(CCN)[nH]1` [2-methylhistamine], in series [1], the IC50 is 4.17 nM.
For the compound `CN=C(NC#N)NCCSCc1csc(N=C(N)N)n1` [^3H-tiotidine], in series [2] (deuterated medium (D2O)), the “maximal binding capacity (Bmax)” value came out at 17.1 ± 2.7 fmol/mg protein and the Kd was found to be 7.4 ± 2.4 nM. Besides, in series [2] (setting [4]), the “maximal binding capacity (Bmax)” value is recorded as 18.6 ± 1.7 fmol/mg protein and the Kd turned out to be 4.7 ± 1 nM.
As to `NCCc1c[nH]cn1` [deuterated histamine], the IC50 in series [1] (deuterated (D), read-out: reported measured value (ligand binding constant)) was determined as 16 nM.
For the compound `[2H]N([2H])CCc1cn([2H])cn1` [deuterated histamine], the binding free energy entry in series [1] (deuterated (D), from measured value 16 nM) was “–10.59 kcal/mol”.
In the case of `NCCc1c[nH]cn1` [histamine], the binding free energy result in series [1] (control (H), from measured value 56 nM) was “–9.86 kcal/mol”. In addition, the IC50 in series [1] (control (H), read-out: reported measured value (ligand binding constant)) worked out at 56 nM. The “ΔEINTER(exp) ΔΔE(H2O–D2O); experimental difference in binding free energy upon deuteration” value in series [1] (ΔGBIND(H→D) = −RT ln(KD/KH)) is 0.73 kcal mol^–1. The hydration free energy result in series [3] is reported as “–68.6 kcal mol^–1”.
